The values below come from ChEMBL document CHEMBL5729430, “ACLY inhibitors and uses thereof” (2022).

In the test the target is T1, ATP-citrate synthase (Homo sapiens, UniProt P53396).
T1 sequence (P53396 whole entry): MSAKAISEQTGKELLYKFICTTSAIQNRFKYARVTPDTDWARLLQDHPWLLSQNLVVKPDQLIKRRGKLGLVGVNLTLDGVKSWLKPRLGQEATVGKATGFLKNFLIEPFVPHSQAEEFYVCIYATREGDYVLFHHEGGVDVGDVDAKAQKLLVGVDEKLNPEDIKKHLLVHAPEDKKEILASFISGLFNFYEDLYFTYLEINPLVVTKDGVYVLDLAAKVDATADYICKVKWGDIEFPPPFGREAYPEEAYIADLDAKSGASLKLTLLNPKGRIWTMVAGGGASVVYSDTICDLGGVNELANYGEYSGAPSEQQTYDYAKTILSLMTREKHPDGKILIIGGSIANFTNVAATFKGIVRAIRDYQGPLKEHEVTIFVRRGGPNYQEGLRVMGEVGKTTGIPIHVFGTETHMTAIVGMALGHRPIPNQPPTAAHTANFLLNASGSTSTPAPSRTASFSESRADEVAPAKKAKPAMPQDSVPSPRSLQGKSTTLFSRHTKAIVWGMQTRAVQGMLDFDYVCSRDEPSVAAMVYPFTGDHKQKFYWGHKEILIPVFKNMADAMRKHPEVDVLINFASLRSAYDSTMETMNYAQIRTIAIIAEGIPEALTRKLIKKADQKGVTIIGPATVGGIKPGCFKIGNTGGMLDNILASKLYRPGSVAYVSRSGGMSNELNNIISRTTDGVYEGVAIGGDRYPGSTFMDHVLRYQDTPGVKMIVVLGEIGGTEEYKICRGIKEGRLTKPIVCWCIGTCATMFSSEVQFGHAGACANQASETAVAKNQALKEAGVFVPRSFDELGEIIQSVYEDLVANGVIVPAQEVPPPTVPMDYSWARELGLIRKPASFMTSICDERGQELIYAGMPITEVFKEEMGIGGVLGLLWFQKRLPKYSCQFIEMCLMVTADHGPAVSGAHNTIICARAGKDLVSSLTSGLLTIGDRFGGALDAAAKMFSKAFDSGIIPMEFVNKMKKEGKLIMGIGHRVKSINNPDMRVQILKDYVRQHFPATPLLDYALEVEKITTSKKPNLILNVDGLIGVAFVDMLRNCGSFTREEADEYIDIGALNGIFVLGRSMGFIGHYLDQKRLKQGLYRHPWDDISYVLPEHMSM
Nature of the test: ADP-Glo Assay: Compounds of the present invention were evaluated in an ADP-GLO assay as follows:a) Dilute cpd 1:3 in succession in DMSO by hand for each cpds for 12 ptsb) Add 0.1 μL diluted cpd solution to assay plate, each dose with 2 replicatesc) Centrifuge 1000 RPM for 1 mind) Add 5 μL ACL working solution to 384-well assay plate, centrifuge 1000 RPM for 1 mine) Incubate at 25° C. for 15 minf) Add 5 μL substrate working solution to initiate reactiong) Final ACL reaction concentrations: 3 nM ACL, 15 μM ATP, 3 μM CoA, 300 μM Citrate, 0.01% Brij35, 4 mM DTT, 1% DMSO;h) Reference final conc: 30 uM starting Conc, 3× dilution, 11+0 points. Test cpd conc: 30/100 uM starting Conc, 3× dilution, 11+0 points.i) Incubate at 25° C. for 60 minj) Add 10 μL ADP Glo reagent, centrifuge 1000 RPM for 1 mink) Incubate at 25° C. for 40 minl) Add 20 μL kinase detection reagent, centrifuge 1000 RPM for 1 minm) Incubate at 25° C. for 40 minn) Read on Envision for US LUM as RLU. (In ADP-Glo the light output rises with the ADP produced.)

A word on the IC50: it is the concentration needed to halve the response being measured. Low values mean greater potency in that assay, high ones weaker potency in that assay. For `O=S(=O)(c1cc(Cl)cc(Cl)c1)n1c(-c2cncnc2)cc2cc(Cl)ccc21`, the IC50 was more than 20 µM. `O=C(O)c1cc2cc(Cl)ccc2n1S(=O)(=O)c1cc(Cl)cc(Cl)c1` registered an IC50 of less than 0.5 µM.
